Experiments:
human urethra = test: Efficacy: contraction of human urethra compared with noradrenaline; format: cell-based; conditions: percentage of contraction compared with noradrenaline
Protocol: (§1) The efficacy and selectivity of the compound according to the invention is determined as follows, using the same findings as described in 1:
Maximum contraction in the dog and activity on human urethra are percentages of contraction compared with noradrenaline.

[1] = test system: dog's femoral artery; carotid artery in the dog; test: Selectivity in the dog: femoral artery versus carotid artery contraction; format: cell-based; conditions: difference of percentage contraction of dog's femoral artery at 10^-5 M and percentage contraction of carotid artery at 10^-5 M
Protocol: as §1
Selectivity in the dog is the difference obtained from the percentage contraction of the dog's femoral artery at 10^-5 M and percentage contraction of the carotid artery in the dog at 10^-5 M.

[2] = Metabolism: substrate breakdown by the enzyme CYP2D6; format: in vitro ADME; conditions: 30 minutes' incubation with CYP2D6; read-out: % Substrate breakdown after 30 minutes' incubation with CYP2D6
Protocol: To determine the metabolism the enzyme CYP2D6 was allowed to act on the hydrochloride of the compound 1 according to the formula I (2-amino-1-(4-hydroxy-3-methanesulphonamidophenyl)ethanol). After 30 minutes a check was made to determine how much of the substance had been broken down by the enzyme. (-)-R-2-Amino-1-(2-fluoro-5-methanesulphonamido-phenyl)ethanol 2 was used as a comparison.

metabolised at 0.5 h [2]	SMILES	Emax (human urethra)	selectivity in the dog [1]
1.4%	CS(=O)(=O)Nc1cc(C(O)CN)ccc1O (stereo not drawn) [Compound 1, 2-amino-1-(4-hydroxy-3-methanesulphonamidophenyl)ethanol]	120%	53
2.1%	CS(=O)(=O)Nc1ccc(F)c([C@@H](O)CN)c1 [Compound 2, (-)-R-2-Amino-1-(2-fluoro-5-methanesulphonamido-phenyl)ethanol]	48%	40

From patent publication EP1363614B1, “USE OF 2-AMINO-1-(4-HYDROXY-3-METHANESULPHONAMIDOPHENYL)ETHANOL FOR TREATING URINARY INCONTINENCE” (Boehringer Ingelheim Pharma GmbH & Co. KG, priority 2001, dated 2002)
